Data: publication PMC11357446, “Searching for Novel HDAC6/Hsp90 Dual Inhibitors with Anti-Prostate Cancer Activity: In Silico Screening and In Vitro Evaluation” (Pharmaceuticals, 2024)
Where two headings read alike, the source gives them in different places.

Experiments:
Assay type in all cases: cell-based, human
[1] = system: LNCaP prostate cancer cells; test: Cell viability assay (PrestoBlue) on LNCaP cells; conditions: 72 h treatment, PrestoBlue, mean of three independent experiments ± SEM, read-out: LNCaP GI50
Description: The human prostate cancer cell line PC-3 (ATCC Cat# CRL-1435) was grown in Ham’s F12 (Biowest, Nuaillé, France) medium, while the human prostate cancer cell line LNCaP (ATCC Cat# CRL-1740) was grown in RPMI 1640 (Biowest, Nuaillé, France) medium. Both media were supplemented with 10% Fetal Bovine Serum (FBS, Gibco, Fisher Scientific Italia, Segrate, Italy), 2 mM glutamine, 100 U/mL penicillin, and 100 μg/mL streptomycin. PC-3 and LNCaP cells were maintained at 37 °C in a humidified 5% CO2 atmosphere.
PC-3 and LNCaP cells were seeded at a density of 4000 and 6000 cells/well into a 96-well plate, respectively, together with a calibration curve of known cell numbers. The following day, the cells were treated with the indicated test compounds at different concentrations starting at 75μM with 2-fold serial dilutions. Cell viability was evaluated after 72h by colorimetric MTT (PC-3) or PrestoBlue™ (LNCaP) cell viability reagents. A total of 0.5 mg/mL of thiazolyl blue tetrazolium bromide (MTT) (Sigma-Aldrich, St. Louis, MO, USA) in Ham’s F12 medium was added to the wells, and the plate was incubated at 37 °C for 2 h. Medium containing unconverted MTT was removed, and 100 μL of MTT solvent (4 mM HCl, 0.1% NP40, in isopropyl alcohol) was added to the wells in order to solubilize MTT crystals. After 15 min of incubation at room temperature, the absorbance values at 570 nm were obtained with a Multiskan FC Microplate Photometer (Thermo Fisher Scientific, Waltham, MA, USA). PrestoBlue reagent (#A13261, Thermo Fisher Scientific, Waltham, MA, USA) was added to the medium (1:10 v/v) and incubated for 1 h at 37 °C. Cell viability was calculated by quantifying PrestoBlue reduction by measuring the absorbance at 570 and 620 nm, according to the manufacturer’s protocol. The viability of untreated cells was arbitrarily set at 100%, and the concentration at which cellular growth is inhibited by 50% (GI50) was determined. Three independent experiments were performed.

[2] = system: acetylated tubulin (Ac-Tub) in LNCaP cells; test: Western blot of acetylated α-Tubulin in LNCaP cells; conditions: 24 h at GI50 concentration, normalized with Tubulin
Description: (§1) To assess whether the observed antiproliferative activity of the selected compounds was a consequence of HDAC6-targeting, we examined the effect of the cell treatments on the expression levels of acetylated tubulin (Ac-Tub), a well-known HDAC6 target. LNCaP and PC-3 cells were treated with the tested compounds at their GI50 concentrations, and SDS-PAGE and western blot were performed. In addition, the acetylation levels of histone H3, which are mainly regulated by HDAC1, were also evaluated in order to exclude potential class I-HDAC off-target activities. We used Tubastatin-A and Geldanamycin as reference controls for cellular effects resulting from HDAC6- and Hsp90-inhibition, respectively. The results in Figure 2 show a significant increase in α-Tubulin acetylation in LNCaP cells after treatments with compounds 8, 11 and 18. Indeed, these compounds triggered a 2.9-, 5.1-, and 2.5-fold increase, respectively, compared to the control (DMSO). […].
Figure 2 Western blot analysis and relative quantification of the expression levels of acetylated-Tubulin (Ac-TUB), acetylated H3 (Ac-H3), and HSP70 in LNCaP (A,B) and PC-3 (C,D) cells treated for 24 h at GI50 concentration. Tubastatin-A was used as HDAC6-specific positive control, Geldanamycin (GELDA) as HSP90-specific positive control, and SAHA as pan-HDAC inhibitor. Protein expression was normalized with Tubulin levels (Ac-TUB and HSP70) or total H3 (Ac-H3). Quantification is reported as fold change in treated cells versus DMSO control (CTR), arbitrarily set at 1 (one sample t-test p-values: * p < 0.05, ** p < 0.01, *** p < 0.001, **** p < 0.0001; n = 3).
(§2) Cell treatment. PC-3 and LNCaP cells were grown in 12-well tissue-culture plates and treated with test compounds at the evaluated GI50 concentration for each candidate inhibitor for 24 h. DMSO was used as a negative control, while Tubastatin-A and Geldanamycin were used as positive controls for HDAC6 and Hsp90 inhibition, respectively. Vorinostat (SAHA) was used as a pan-HDACi control. […] Protein quantitation was performed with Pierce Detergent Compatible Bradford Assay (#23246, Thermo Fisher Scientific, MA, USA), and equivalent amounts of cellular extracts were resolved by SDS-PAGE, transferred to PVDF or Nitrocellulose membrane with Trans-Blot Turbo Transfer System (Bio-Rad, Hercules, CA, USA), and immunoblotted with the following primary antibodies, diluted 1:1000 in 1× TBS with 1 mg/mL BSA: Anti-Histone H3 (#PA5-16183, Invitrogen, Thermo Fisher Scientific, MA, USA), Anti-acetylated histone H3 (#sc-518011, Santa Cruz Biotechnology, Inc., Dallas, TX, USA), Anti-Tubulin (#E-AB-20073, Elabscience, Houston, TX, USA), Anti-acetylated α-tubulin (#sc-23950, Santa Cruz), and Anti-HSP70 (#4872S, Cell Signaling Technology, Inc., Danvers, MA, USA). […]

[3] = system: acetylated tubulin (Ac-Tub) in PC-3 cells; test: Western blot of acetylated α-Tubulin in PC-3 cells; conditions: 24 h at GI50 concentration, normalized with Tubulin
Description: as §1
(§3) Figure 2 Western blot analysis and relative quantification of the expression levels of acetylated-Tubulin (Ac-TUB), acetylated H3 (Ac-H3), and HSP70 in LNCaP (A,B) and PC-3 (C,D) cells treated for 24 h at GI50 concentration. […]
as §2, with “treatment.” for “treatment. PC-3 and LNCaP cells were grown in 12-well tissue-culture plates and treated with test compounds at the evaluated GI50 concentration for each candidate inhibitor for 24 h. DMSO was used as a negative control, while Tubastatin-A and Geldanamycin were used as positive controls for HDAC6 and Hsp90 inhibition, respectively. Vorinostat (SAHA) was used as a pan-HDACi control.”

[4] = system: acetylated H3 (Ac-H3) in LNCaP cells; test: Western blot of acetylated histone H3 in LNCaP cells; conditions: 24 h at GI50 concentration
Description: as §1
as §3, with “concentration. Tubastatin-A was used as HDAC6-specific positive control, Geldanamycin (GELDA) as HSP90-specific positive control, and SAHA as pan-HDAC inhibitor.” for “concentration.”

[5] = system: acetylated H3 (Ac-H3) in PC-3 cells; test: Western blot of acetylated histone H3 in PC-3 cells; conditions: 24 h at GI50 concentration
Description: as §1
as §3, with “concentration. Tubastatin-A was used as HDAC6-specific positive control, Geldanamycin (GELDA) as HSP90-specific positive control, and SAHA as pan-HDAC inhibitor.” for “concentration.”

Row | Compound | GI50 ([1]; Homo sapiens, LNCaP, 72 h) [µM] | α-Tubulin acetylation, fold increase compared to the control (DMSO) [2] [fold] | α-Tubulin acetylation, fold induction versus DMSO control [3] [fold] | GI50 [1] [µM] | induction of H3 acetylation [4] | induction of H3 acetylation [5]
1 | CC(C)[C@H](C(=O)NCc1ccc(C(=O)NO)cc1)N1Cc2ccccc2C1=O [Compound 11] | 41.3 ± 8.7 | 5.1 | 5.5 |  |  | 
2 | O=C(Nc1ncccc1O)c1ccc(-c2noc(C(F)(F)F)n2)cc1 [Compound 18] | > 75 | 2.5 | 4.9 |  |  | 
3 | O=C(c1cc(OCc2ccccc2)ccc1O)N1CCC(c2noc(C(F)(F)F)n2)CC1 [Compound 8] | ~50 | 2.9 | 7.3 | 51.6 ± 3.7 | no remarkable induction of H3 acetylation | no remarkable induction of H3 acetylation
